Tests used:
[1] = test system: A. baumannii ATCC 17978 (SEN) and A. baumannii ATCC BAA-1605 (MDR); assay: microbe, parasite or virus in culture; format: cell-based, Acinetobacter baumannii; details: for MIC: across three biological replicates
Protocol: This study focused on multiple bacterial strains, as follows. For the FoR and ALE experiments, 2 strains per species were chosen: E. coli ATCC 25922, K. pneumoniae ATCC 10031, A. baumannii ATCC 17978, and P. aeruginosa ATCC BAA-3107 as sensitive (SEN) strains, and E. coli NCTC13846, K. pneumoniae ATCC 700603, A. baumannii ATCC BAA-1605 and P. aeruginosa LESB58 as multi-drug resistant (MDR) strains. Functional metagenomic screens were performed with E. coli ATCC 25922 and K. pneumoniae ATCC 10031 strains. To determine the dose-kill properties of the different antibiotics, an E. coli strain (ATCC 25922) expressing a yellow fluorescent protein (pZS2R, YFP, CHL^R) and a red fluorescent protein (pZS2R, mCherry, CHL^R) was used.
Unless otherwise indicated, cation-adjusted Mueller-Hinton Broth 2 (MHB, Millipore) medium was used throughout the study, except for SCH79797 (SCH).
(§1) A robotic liquid handling system was used to automatically prepare a 11 to 16-step serial dilution in 384-well microtiter plates (Greiner). A final concentration of 5 × 10^5 bacterial cells per mL were inoculated into each well containing 60 µL MHB medium. Bacterial cultures were incubated at 37 °C with continuous shaking (Infors shaker, 900 rpm with 3 mm throw) for 18 hours (2 replicates from each). Cell growth was monitored by measuring the optical density (OD600 values, using Biotek Synergy microplate reader). MIC was defined as the antibiotic concentration of complete growth inhibition (i.e., OD600 < 0.05). Relative MIC was calculated as follows:1 relativeMIC=MICevolved/MICancestor

[2] = test system: E. coli ATCC 25922 (SEN) and E. coli NCTC13846 (MDR); assay: Adaptive laboratory evolution (ALE), relative MIC of evolved lines; format: cell-based, Escherichia coli
Source text: Using the same set of bacterial strains, we initiated adaptive laboratory evolution with the aim to maximize the level of antibiotic resistance in the populations achieved during a longer, but fixed time period.
An established protocol for adaptive laboratory evolution[46],[73] was followed to propagate populations with the highest resistance levels. Starting with an antibiotic concentration that caused approximately 50% growth inhibition, ten parallel populations for each antibiotic-ancestor strain combination were grown for 72 hours at 37 °C with continuous shaking (300 RPM). MHB broth medium was used unless stated otherwise. After each incubation, 20 µl of each culture was transferred to four new wells containing fresh medium with increasing antibiotic concentrations (0.5×, 1×, 1.5×, and 2.5× the previous concentration) in a chessboard layout to monitor potential cross-contamination. Growth was monitored by measuring OD600 using a Biotek Synergy 2 microplate reader, and only populations grown in the highest drug concentration with an OD600 > 0.2 were transferred further.
as §1, with “relativeMIC=MICevolved/MICancestor […]” for “relativeMIC=MICevolved/MICancestor”
Supplementary Figure 4. Resistance levels following adaptive laboratory evolution across bacterial strains. The level of resistance was measured as the fold change in relative MIC between evolved and ancestral strains after ~60 days of adaptive laboratory evolution. Data are grouped by bacterial strain (A. baumannii (AB), E. coli (EC), K. pneumoniae (KP), and P. aeruginosa (PA)) and categorized as either multidrug-resistant (MDR) or sensitive (SEN). Each data point represents a laboratory evolved line, and boxplots show the median, first and third quartiles, with whiskers indicating the 5th and 95th percentiles.
Statistical analysis was performed using two-sided Dunn’s post-hoc test with Benjamini-Hochberg correction for multiple comparisons (****/ ***/ **/ * indicates p < 0.0001/ 0.001/ 0.01/ 0.05). For detailed information on antibiotic and bacterial species, see Supplementary Table 1. For mode of action groups, refer to Table 1. Source data are provided as a Source Data file.
(1 picture or pasted object on this page, not shown here)

[3] = EC-SEN (Escherichia coli ATCC 25922), evolved line 3
[4] = EC-SEN (Escherichia coli ATCC 25922), evolved line 4
[5] = EC-SEN (Escherichia coli ATCC 25922), evolved line 5
[6] = EC-SEN (Escherichia coli ATCC 25922), evolved line 7
[7] = EC-SEN (Escherichia coli ATCC 25922), evolved line 10

CC(C)c1ccc(Cn2ccc3c4c(N)nc(NC5CC5)nc4ccc32)cc1 [SCH79797] showed an MIC of ancestor ([1]; Acinetobacter baumannii ATCC 17978 (AB-SEN), ancestor strain, sheet fig 2a) of 4 µg/mL, an MIC ([1]; Acinetobacter baumannii ATCC 17978 (AB-SEN)) of 4 µg/mL and an MIC of ancestor ([1]; Acinetobacter baumannii ATCC BAA 1605 (AB-MDR), ancestor strain, sheet fig 2a) of 4 µg/mL. It also gave an MIC ([1]; Acinetobacter baumannii ATCC BAA-1605 (AB-MDR)) of 4 µg/mL, an MIC of ancestor ([1]; ancestor AB-MDR (Acinetobacter baumannii ATCC BAA 1605)) of 4 µg/mL and an MIC of ancestor ([1]; ancestor AB-SEN (Acinetobacter baumannii ATCC 17978)) of 4 µg/mL. The “Relative MIC” value ([2]; ALE, Escherichia coli ATCC 25922 (EC-SEN), evolved line 1) was 4, the “Relative MIC” value ([2]; ALE, Escherichia coli ATCC 25922 (EC-SEN), evolved line 2) was 4 and the “Relative MIC” value ([2]; ALE, Escherichia coli ATCC 25922 (EC-SEN), evolved line 3) was 4. For the same compound, the “Relative MIC” value ([2]; ALE, Escherichia coli ATCC 25922 (EC-SEN), evolved line 4) was 4, the “Relative MIC” value ([2]; ALE, Escherichia coli ATCC 25922 (EC-SEN), evolved line 5) was 4 and the “Relative MIC” value ([2]; ALE, Escherichia coli ATCC 25922 (EC-SEN), evolved line 7) was 4. For the same compound, the “Relative MIC” value ([2]; ALE, Escherichia coli ATCC 25922 (EC-SEN), evolved line 8) was 2, the “Relative MIC” value ([2]; ALE, Escherichia coli ATCC 25922 (EC-SEN), evolved line 9) was 2 and the “Relative MIC” value ([2]; ALE, Escherichia coli ATCC 25922 (EC-SEN), evolved line 10) was 4. The MIC of evolved line ([2]; EC-SEN (E. coli ATCC 25922), evolved line 1 of the given antibiotic) was 16 µg/mL, the “Relative MIC” value ([2]; EC-SEN (E. coli ATCC 25922), evolved line 1 vs ancestor) was 4 and the MIC of evolved line ([2]; EC-SEN (E. coli ATCC 25922), evolved line 2 of the given antibiotic) was 16 µg/mL. For the same compound, the “Relative MIC” value ([2]; EC-SEN (E. coli ATCC 25922), evolved line 2 vs ancestor) was 4, the MIC of evolved line ([2]; EC-SEN (E. coli ATCC 25922), evolved line 3 of the given antibiotic) was 16 µg/mL and the “Relative MIC” value ([2]; EC-SEN (E. coli ATCC 25922), evolved line 3 vs ancestor) was 4. The MIC of evolved line ([2]; EC-SEN (E. coli ATCC 25922), evolved line 4 of the given antibiotic) was 16 µg/mL, the “Relative MIC” value ([2]; EC-SEN (E. coli ATCC 25922), evolved line 4 vs ancestor) was 4 and the MIC of evolved line ([2]; EC-SEN (E. coli ATCC 25922), evolved line 5 of the given antibiotic) was 16 µg/mL. For the same compound, the “Relative MIC” value ([2]; EC-SEN (E. coli ATCC 25922), evolved line 5 vs ancestor) was 4, the MIC of evolved line ([2]; EC-SEN (E. coli ATCC 25922), evolved line 7 of the given antibiotic) was 16 µg/mL and the “Relative MIC” value ([2]; EC-SEN (E. coli ATCC 25922), evolved line 7 vs ancestor) was 4. For the same compound, the MIC of evolved line ([2]; EC-SEN (E. coli ATCC 25922), evolved line 8 of the given antibiotic) was 8 µg/mL, the “Relative MIC” value ([2]; EC-SEN (E. coli ATCC 25922), evolved line 8 vs ancestor) was 2 and the MIC of evolved line ([2]; EC-SEN (E. coli ATCC 25922), evolved line 9 of the given antibiotic) was 8 µg/mL. For the same compound, the “Relative MIC” value ([2]; EC-SEN (E. coli ATCC 25922), evolved line 9 vs ancestor) was 2, the MIC of evolved line ([2]; EC-SEN (E. coli ATCC 25922), evolved line 10 of the given antibiotic) was 16 µg/mL and the “Relative MIC” value ([2]; EC-SEN (E. coli ATCC 25922), evolved line 10 vs ancestor) was 4. The “Relative MIC” value [2, 3] was 4, the “Relative MIC (log10)” value [2, 3] was 0.6021 log10 and the “Relative MIC” value [2, 4] was 4. For the same compound, the “Relative MIC (log10)” value [2, 4] was 0.6021 log10, the “Relative MIC” value [2, 5] was 4 and the “Relative MIC (log10)” value [2, 5] was 0.6021 log10. The “Relative MIC” value [2, 6] was 4, the “Relative MIC (log10)” value [2, 6] was 0.6021 log10 and the “Relative MIC” value ([2]; EC-SEN (Escherichia coli ATCC 25922), evolved line 8) was 2. The “Relative MIC” value ([2]; EC-SEN (Escherichia coli ATCC 25922), evolved line 9) was 2, the “Relative MIC” value [2, 7] was 4 and the “Relative MIC (log10)” value [2, 7] was 0.6021 log10. For the same compound, the “Relative MIC” value ([2]; EC-SEN, Escherichia coli ATCC 25922, evolved line 1) was 4, the “Relative MIC” value ([2]; EC-SEN, Escherichia coli ATCC 25922, evolved line 2) was 4 and the “Relative MIC” value ([2]; Escherichia coli ATCC 25922 (EC-SEN), evolved line 1) was 4. For the same compound, the “Relative MIC” value ([2]; Escherichia coli ATCC 25922 (EC-SEN), evolved line 2) was 4, the “Relative MIC” value ([2]; Escherichia coli ATCC 25922 (EC-SEN), evolved line 3) was 4 and the “Relative MIC” value ([2]; Escherichia coli ATCC 25922 (EC-SEN), evolved line 4) was 4. For the same compound, the “Relative MIC” value ([2]; Escherichia coli ATCC 25922 (EC-SEN), evolved line 5) was 4, the “Relative MIC” value ([2]; Escherichia coli ATCC 25922 (EC-SEN), evolved line 7) was 4 and the “Relative MIC” value ([2]; Escherichia coli ATCC 25922 (EC-SEN), evolved line 8) was 2. For the same compound, the “Relative MIC” value ([2]; Escherichia coli ATCC 25922 (EC-SEN), evolved line 9) was 2 and the “Relative MIC” value ([2]; Escherichia coli ATCC 25922 (EC-SEN), evolved line 10) was 4.
